Data on two molecules can be found in publication PMC5357639 (Frontiers in Chemistry, 2017).

Series [1] concerns E. coli ATCC 25922. Particulars: ref Czihal et al., 2012, cited from earlier work. An excerpt: Antimicrobial peptides (AMPs) are considered as promising alternatives to common antibiotics that threateningly lose their therapeutic potentials against multidrug-resistant pathogens (Fox, [2013]; Wang et al., [2015]). In contrast to approved therapeutic peptide hormones, antimicrobial peptides have to be administered at much higher doses, which may amplify general drawbacks of peptide therapeutics. […] Api137 appeared more efficient in this septicemia model due to the better scores obtained at ... || Apidaecin analogs Api88 and Api137 are similarly active against Gram-negative bacteria with a tendency of higher activity of Api88 against K. pneumoniae (Czihal et al., [2012]; Berthold et al., [2013]). However, Api88 carries a C-terminal amide that is responsible for its very fast proteolytic cleavage in serum, the supernatant obtained after complete coagulation and centrifugation of blood. The in vitro serum stability assay, which is an important in vitro criterion to select therapeutic peptides for systemic applications, yielded very short half-life times of 5 min for Api88, which indicate ...

The nature of series [2]: Acute toxicity, intraperitoneal administration. It counts as in vivo, NMRI mice. As to the method:
(§1) The acute toxicity of Api137 was studied by administering doses of 20, 40, 80, and 120 mg/kg intraperitoneally (i.p.) four times daily (0, 3, 7, and 24 h) into female NMRI mice (24–32 g, ~7 weeks old). For in vivo efficacy, female NMRI mice (high dose experiment: 24–27.1 g, 6 weeks; low dose experiment: 26.8–30.3 g, 7 weeks) were infected intraperitoneal with E. coli ATCC 25922, as described before (Czihal et al., [2012]; Knappe et al., [2012]). Briefly, each mouse was infected with 9 × 10^5 bacteria in the presence of 2.5% (w/v) mucin (0.3 mL in total). Mucin restricts acute macrophage activation in the intraperitoneal space and promotes establishment of a reproducible infection (Frimodt-Møller et al., [1999]). Mice were observed three times daily for their health status for a total of 5 days post-infection and weighed 1 day before and 1 and 5 days after infection. In accordance with the guidelines of the Animal Care and Usage Committee of the Landesdirektion Leipzig, moribund mice were euthanized.

Series [3] can be described thus: Peptide recovery in spiked blood and organ homogenates. It counts as in vitro ADME, NMRI mice. Particulars: LC-MS MRM, mean n = 3. As to the method: plasma samples and organ homogenates relative to equally concentrated peptide solutions in pure w ater. Concentrations of samples below the LOQ but still detectable were set to the value of the LOD, whereas signals with peak hei ghts below the LOD were set to 0 µg/m L.
Method M3: Recovery rates in plasma and organ homogenates
Li -heparin blood samples obtained from untreated NMRI mice were spiked with Api88 or Api137 (final concentrations: 2.5 or 10 µ g/ m L), incubated (10 min, RT), and centrifuged (2,000x g, 3 min, RT) to obtain plasma. […]
500 µ L, 0.2 or 2 µg/m L, l iver: 500 µ L, 1 or 2.5 µ g/m L, kidne ys: 500 µ L, 20 or 60 µg/m L). […] Recoveries were calculated b y assumin g a total blood (plasma) volume of 75 (25) m L per k g mouse weight 3 and that the measured organ weight (in g) corresponds to the organ volume (in m L). […]
Apidaecin peptides were selectively and sensitively quantified based on the methods established for oncocins Onc72 and Onc112 (Sch midt R. et al J AC 2016). […]
Table S12. Recover y rates of Api88 and Api137 determined in plasma and organ homogenates (n = 3) collected from untreated NMRI mice. […]
500 µ L, 1 or 2.5 µg/m L, kidneys: 500 µ L, 20 o r 60 µg/m L) were added p rior to homogenization and centrifugation. […] The total peptide amount in mice was calculated from the recover y rates shown […]

The test system of series [4] is E. coli ATCC 25922. Put plainly: Systemic septicemia infection mouse model (lethal intraperitoneal E. coli infection). It counts as in vivo, NMRI mice. As to the method:
as §1
Apidaecin Api137 (high dose experiment: 2.5 and 1.25 mg/kg body weight; low dose experiment: 0.6 and 0.3 mg/kg body weight) was administered intraperitoneal (0.3 mL) in seven mice per group three times post-infection (1, 4, and 8 h) as antibacterial therapy. Each experiment included seven mice receiving ciprofloxacin (40 mg/kg body weight) and four mice receiving only the vehicle (5% glucose in water, w/v) as positive and negative controls, respectively.

Each structure is given as a SMILES string. “Also recorded” adds a separate entry of the source. Read-outs that look alike come from different tables or passages of the source. Where a SMILES comes first, the peptide text is derived from it. The star is where a group is joined. Orn(α-tetramethylguanidino) = CN(C)C(=N[C@@H](CCCN)C(=O)*)N(C)C

Take `CC[C@H](C)[C@H](NC(=O)[C@H](Cc1ccc(O)cc1)NC(=O)[C@@H](NC(=O)[C@@H]1CCCN1C(=O)[C@H](CCCNC(=N)N)NC(=O)[C@H](CC(N)=O)NC(=O)[C@H](CC(N)=O)NC(=O)[C@H](CCCN)N=C(N(C)C)N(C)C)C(C)C)C(=O)N1CCC[C@H]1C(=O)N[C@@H](CCCNC(=N)N)C(=O)N1CCC[C@H]1C(=O)N[C@@H](CCCNC(=N)N)C(=O)N1CCC[C@H]1C(=O)N1CCC[C@H]1C(=O)N[C@@H](Cc1c[nH]cn1)C(=O)N1CCC[C@H]1C(=O)N[C@@H](CCCNC(=N)N)C(=O)N[C@@H](CC(C)C)C(N)=O` [Api88] ({Orn(α-tetramethylguanidino)}-NNRPVYIPRPRPPHPRL-NH2): the Survival entry in series [1] (2.5 and 1.25 mg/kg i.p.) is listed as “rescued all NMRI mice”. The “Dose rescuing all mice” value in series [1] (same infection model) is 1.25 mg/kg.

A word on the ED50: it is the dose that gives a 50% effect, or the effect in half of the subjects. A low value points to an effect at a small dose. On to `CC[C@H](C)[C@H](NC(=O)[C@H](Cc1ccc(O)cc1)NC(=O)[C@@H](NC(=O)[C@@H]1CCCN1C(=O)[C@H](CCCNC(=N)N)NC(=O)[C@H](CC(N)=O)NC(=O)[C@H](CC(N)=O)NC(=O)[C@H](CCCN)N=C(N(C)C)N(C)C)C(C)C)C(=O)N1CCC[C@H]1C(=O)N[C@@H](CCCNC(=N)N)C(=O)N1CCC[C@H]1C(=O)N[C@@H](CCCNC(=N)N)C(=O)N1CCC[C@H]1C(=O)N1CCC[C@H]1C(=O)N[C@@H](Cc1c[nH]cn1)C(=O)N1CCC[C@H]1C(=O)N[C@@H](CCCNC(=N)N)C(=O)N[C@@H](CC(C)C)C(=O)O` [Api137] ({Orn(α-tetramethylguanidino)}-NNRPVYIPRPRPPHPRL-OH), for which the Adverse side effects entry in series [2] (120 mg/kg per injection i.p. four times (0, 3, 7, 24 h)) was “signs of discomfort in some animals and decreased mobility for up to 20 min after administration”; in series [2] (20, 40 and 80 mg/kg per injection i.p. four times (0, 3, 7, 24 h), seven animals per dose group) it was “none of the seven animals per dose group showed any signs of adverse side effects”. In addition, the Survival result in series [2] (120 mg/kg per injection i.p. four times, observation period 5 days) is on record as “all mice survived”; in series [4] (0.3 mg/kg i.p. three times post-infection (1, 4, 8 h), n = 7), “four out of seven mice”; in series [4] (0.6 mg/kg (and higher) i.p. three times post-infection (1, 4, 8 h), n = 7, 5 days observation), “rescued all NMRI mice; also recorded: rescuing all animals”. The “Recovery rate, Kidney, low concentration” value in series [3] (peptide 20 µg/mL in 500 µL PBS with protease inhibitor added prior to homogenization) is listed as 3.5 ± 0.4%. For the same molecule, the “Recovery rate, Kidney, high concentration” value in series [3] (peptide 60 µg/mL in 500 µL PBS with protease inhibitor added prior to homogenization) is given as 2.7 ± 0.7%. In series [4] (i.p. three times post-infection), the “Dose rescuing all mice” value worked out at 0.6 mg/kg. The molecule further had a 50% effective dose (ED50) in series [4] (i.p. three times post-infection (1, 4, 8 h), approximate) of around 0.3 mg/kg.
